According to US20110159086A1, “PHARMACEUTICAL FORMULATION COMPRISING A CB1-RECEPTOR COMPOUND IN A SOLID SOLUTION AND/OR SOLID DISPERSION” (LABORATORIOS DEL DR. ESTEVE, S.A., priority 2008, published 2011):
Like-named read-outs stand apart in the source and are kept apart here.

Key:
[1] = Dissolution profiles of the hot melt extrusion formulations, Non-Sink conditions (HCL 0.1N, pH 1.2); type: physicochemical; conditions: for % dissolved (pH 1.2): Non-Sink, HCL 0.1N pH 1.2, paddles 50 rpm, 1000 ml, 37° C.
Text: (§1) A mixture has been prepared during two minutes in proportion as described in Table 4. The “Hot Melt Extrusion” formulations, in percentage, have been developed for each series.
(§2) The mixture has been loaded in an extruder and the temperature has been adjusted according to the type of polymer used, as described below:
(§3) The obtained extrudates have been cooled at room temperature and milled. The particle size has then been homogenized. A powder has been obtained which has then been dosified in capsules for administration
(§4) The dissolution apparatus used was HANSON […]. SR8 PLUS, the UV spectrophotometer HEWLET PACKARD 8452.
In the NON-SINK conditions, the active ingredient concentration in the dissolution medium is above the saturation concentration, i.e. the active ingredient is in a medium in which it is not soluble.
The conditions used for the Non-Sink assays were:
Dissolution medium: HCL 0.1N, pH 1.2
(§5) Vessel temperature 37° C.

[2] = Dissolution profiles of the hot melt extrusion formulations, Sink conditions (HCL 0.1N, pH 1.2 + Sodium Lauryl Sulfate 0.1%); type: physicochemical; conditions: for % dissolved (pH 1.2 SLS 0.1%): Sink, HCL 0.1N pH 1.2 + SLS 0.1%, paddles 50 rpm, 1000 ml, 37° C.
Text: as §1, §2, §3, §4
In the SINK conditions, the active ingredient concentration in the dissolution medium is below 20% of the saturation concentration, i.e. the active ingredient will dissolve easily in the medium.
The conditions used for the Sink assays were:
Dissolution medium: HCL 0.1N, pH 1.2+Sodium Lauryl Sulfate 0.1%
as §5

[3] = Pharmacokinetic study in rats, plasma levels of the (4S,5S) cis enantiomer by chiral LC-MS/MS; type: in vivo, male Wistar Hannover rats; conditions: for Vd: male, rat
[4] = Solubility increase (Δ) = FD60 min formulation/FD % 60 min (drug), FD = dissolved drug fraction
[5] = Wistar Hannover (HSDHan:WIST), po, 20 mg/kg, male rat, single dose, fasting, analyte (4S,5S) cis enantiomer in plasma, suspension = active alone in 5% arabic gum, HME = example 15
[6] = Wistar Hannover, plasma, iv, 1 mg/kg, male rat, solution

C[C@@H]1C(C(=O)NN2[C@H](C)CCC[C@@H]2C)=NN(c2ccc(Cl)cc2Cl)[C@@H]1c1ccc(Cl)cc1 [(4S,5S) cis enantiomer, (4S,5S)-5-(4-chlorophenyl)-1-(2,4-dichlorophenyl)-N-(cis-2,6-dimethylpiperidin-1-yl)-4-methyl-4,5-dihydro-1H-pyrazole-3-carboxamide]
Increase (Δ) 60 min. Non Sink Conditions [1, 4]: 0.00 | % dissolved (pH 1.2) ([1]; time 0 min): 0.0% | % dissolved (pH 1.2) ([1]; time 5 min): 2.2% | % dissolved (pH 1.2) ([1]; time 10 min): 1.9% | % dissolved (pH 1.2) ([1]; time 15 min): 1.4% | % dissolved (pH 1.2) ([1]; time 20 min): 1.5% | % dissolved (pH 1.2) ([1]; time 30 min): 1.6% | % dissolved (pH 1.2) ([1]; time 45 min): 2.7% | % dissolved (pH 1.2) ([1]; time 60 min): 2.9% | Increase (Δ) 60 min. Sink Conditions [2, 4]: 0.00 | % dissolved (pH 1.2 SLS 0.1%) ([2]; time 0 min): 0.0% | % dissolved (pH 1.2 SLS 0.1%) ([2]; time 5 min): 4.1% | % dissolved (pH 1.2 SLS 0.1%) ([2]; time 10 min): 6.5% | % dissolved (pH 1.2 SLS 0.1%) ([2]; time 15 min): 11.8% | % dissolved (pH 1.2 SLS 0.1%) ([2]; time 20 min): 16.0% | % dissolved (pH 1.2 SLS 0.1%) ([2]; time 30 min): 24.3% | % dissolved (pH 1.2 SLS 0.1%) ([2]; time 45 min): 37.8% | % dissolved (pH 1.2 SLS 0.1%) ([2]; time 60 min): 53.0% | AUC(0-t) [3, 5]: 374 ng·h/mL | Tmax [3, 5]: 6 h | Cmax ([3]; Wistar Hannover (HSDHan:WIST), po, 20 mg/kg, male rat, single dose, fasting, analyte (4S,5S) cis enantiomer in plasma, suspension = active alone in 5% arabic gum, HME = example 15, read-out: Cmax): 103 ng/mL | AUC(0-inf) [3, 6]: 559 ng·h/mL | AUC(0-t) [3, 6]: 534 ng·h/mL | clearance [3, 6]: 30 mL/min/kg | half-life [3, 6]: 8.2 h | Cmax ([3]; Wistar Hannover, plasma, iv, 1 mg/kg, male rat, solution, read-out: Cmax (C0 for intravenous)): 828 ng/mL | Vd ([3]; Wistar Hannover, plasma, iv, 1 mg/kg, iv, 1 mg/kg, solution, read-out: Vd): 21.1 L/kg | Vd ([3]; Wistar Hannover, plasma, iv, 1 mg/kg, iv, 1 mg/kg, solution, read-out: Vss): 8.7 L/kg | F (Absolute bioavailability estimated from AUC0-t) ([3]; po, 20 mg/kg, male rat, versus iv 1 mg/kg solution, suspension = active alone in 5% arabic gum, HME = example 15): 3.5%
